Earlier results as cited in patent publication US9951057B2, “COMT inhibiting methods and compositions” (Lieber Institute for Brain Development, priority 2015, dated 2018).

Experiments:
[1] = biological target: T1, aromatic amino acid decarboxylase (AAAD) (Homo sapiens, UniProt P20711); details: given with L-DOPA; Nutt, Woodward et al. 1985; cited from earlier work
T1 sequence (P20711 1-480): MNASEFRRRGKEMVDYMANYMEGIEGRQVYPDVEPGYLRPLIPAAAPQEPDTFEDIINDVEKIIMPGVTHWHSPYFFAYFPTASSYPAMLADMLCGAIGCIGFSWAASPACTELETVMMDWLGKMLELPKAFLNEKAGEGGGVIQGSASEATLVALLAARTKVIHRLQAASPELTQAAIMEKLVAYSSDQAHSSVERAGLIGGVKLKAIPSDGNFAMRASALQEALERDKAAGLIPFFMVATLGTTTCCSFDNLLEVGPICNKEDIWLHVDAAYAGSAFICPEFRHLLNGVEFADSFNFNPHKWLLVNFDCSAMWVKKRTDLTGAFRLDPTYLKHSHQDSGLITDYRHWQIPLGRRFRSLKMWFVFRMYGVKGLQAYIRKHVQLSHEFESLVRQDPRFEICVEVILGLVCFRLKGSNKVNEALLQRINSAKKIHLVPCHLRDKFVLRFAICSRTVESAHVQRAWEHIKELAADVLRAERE

[2] = Russ, et al. 1999; cited from earlier work
[3] = clinical use; Olanow and Watkins 2007; cited from earlier work

C[C@@](Cc1ccc(O)c(O)c1)(NN)C(=O)O [Carbidopa]
reduction of the efficacious L-DOPA dose [1]: 60-80%

Cc1ccc(C(=O)c2cc(O)c(O)c([N+](=O)[O-])c2)cc1 [tolcapone]
brain penetration / levels in the brain [2]: low but measurable levels in the brain
liver injury [3]: associated with serious liver injury, including three deaths
